Patent US20080248511A1, “METHODS TO QUENCH LIGHT FROM OPTICAL REACTIONS” (priority 2007, published 2008)

Experiments:
Renilla luciferase = target: T1, Renilla luciferase (Renilla reniformis, UniProt P27652); assay: Non-detergent compound screen, Renilla luciferase (Example 6); format: biochemical; conditions: for remaining activity at 10 µM / remaining activity at 100 µM / remaining activity at 1000 µM: 0.5% Tergitol NP-9, 0.03% BDDABr, read-out: Retained Renilla Luciferase Value (%)
T1 sequence (P27652 1-311): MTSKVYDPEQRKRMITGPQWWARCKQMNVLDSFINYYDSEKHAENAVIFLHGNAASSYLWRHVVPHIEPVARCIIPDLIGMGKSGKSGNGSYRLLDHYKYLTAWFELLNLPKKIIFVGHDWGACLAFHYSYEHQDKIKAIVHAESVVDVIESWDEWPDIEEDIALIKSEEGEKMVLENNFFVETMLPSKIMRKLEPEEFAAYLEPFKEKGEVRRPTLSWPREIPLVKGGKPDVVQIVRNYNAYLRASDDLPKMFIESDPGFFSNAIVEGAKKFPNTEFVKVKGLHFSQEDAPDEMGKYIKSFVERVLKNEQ
Description: (§1) Each compound was diluted into 200 mM MOPS pH 6.7, 4 μM MgSO4, 1 mM CDTA, 0.5% Tergitol NP-9, 0.05% Mazu-DF-204, 0.03% BDDABr, 30 mM thiourea, 1 mM bis-(2-mercaptoethylsulfone) (BMS), 4 μM CoA, and 1 μM 5-fluoroluciferin. Just prior to the luciferase reaction, 0.1% Prionex® (Pentapharm) and 2.9 μM coelenterazine-h (Promega) were added to each solution.
(§2) The firefly luciferase and Renilla luciferase enzymes were diluted as described in Examples 3 and 5. The luciferase reactions were initiated by adding 50 μl of the firefly luciferase and Renilla luciferase enzyme solution to 50 μl of reagent solution. The reactions were performed as described above. The retained Renilla and firefly luciferase-mediated luminescence and selectivity values for each inhibitor tested are listed in Table 6.

firefly luciferase = firefly luciferase (Photinus pyralis, UniProt P08659); assay: Non-detergent compound screen, firefly luciferase (Example 6); format: biochemical; conditions: 0.5% Tergitol NP-9, 0.03% BDDABr, read-out: Retained Firefly Luciferase Value (%); for remaining activity at 10 µM: inhibitor 10 μM; for remaining activity at 100 µM: inhibitor 100 μM; for remaining activity at 1000 µM: inhibitor 1000 μM
Sequence of firefly luciferase (P08659 whole entry): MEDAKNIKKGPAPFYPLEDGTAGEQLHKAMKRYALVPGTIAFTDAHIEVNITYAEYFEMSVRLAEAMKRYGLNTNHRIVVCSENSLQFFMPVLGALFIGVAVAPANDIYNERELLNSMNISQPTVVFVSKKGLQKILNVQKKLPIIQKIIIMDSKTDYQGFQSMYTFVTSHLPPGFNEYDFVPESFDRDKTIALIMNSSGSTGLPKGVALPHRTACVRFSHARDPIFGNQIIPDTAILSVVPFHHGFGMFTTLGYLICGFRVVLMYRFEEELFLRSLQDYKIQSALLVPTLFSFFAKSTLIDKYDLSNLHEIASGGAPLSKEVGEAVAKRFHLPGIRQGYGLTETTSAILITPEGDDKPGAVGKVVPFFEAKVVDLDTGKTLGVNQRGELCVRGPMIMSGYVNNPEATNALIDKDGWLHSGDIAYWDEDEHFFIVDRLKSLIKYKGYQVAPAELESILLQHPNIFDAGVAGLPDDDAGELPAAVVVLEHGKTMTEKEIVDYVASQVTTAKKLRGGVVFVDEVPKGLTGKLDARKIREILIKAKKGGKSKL
Description: as §1, §2

SMILES	inhibitor of Renilla luciferase, grade in words (Renilla luciferase)	Selectivity Value (Renilla luciferase; inhibitor 10 μM)	remaining activity at 10 µM (Renilla luciferase; inhibitor 10 μM) [%]	Selectivity Value (Renilla luciferase; inhibitor 100 μM)	remaining activity at 100 µM (Renilla luciferase; inhibitor 100 μM) [%]	Selectivity Value (Renilla luciferase; inhibitor 1000 μM)	remaining activity at 1000 µM (Renilla luciferase; inhibitor 1000 μM) [%]	remaining activity at 10 µM (firefly luciferase) [%]	remaining activity at 100 µM (firefly luciferase) [%]	remaining activity at 1000 µM (firefly luciferase) [%]
COc1ccc(CNC(=O)/C=C/c2ccc3c(ccc[n+]3C)c2)cc1.[I-] [Compound 3061, (E)-6-(3-(4-methoxybenzylamino)-3-oxoprop-1-enyl)-1-methylquinolinium iodide]	inhibitors of Renilla luciferase	1.1	96	1.8	85	2.3	36	103	100	82
COc1ccc(CCNC(=O)/C=C/c2ccc3[nH]cc(CCN(C)C)c3c2)cc1 [Compound 3062, (E)-3-(3-(2-(dimethylamino)ethyl)-1H-indol-5-yl)-N-(4-methoxyphenethyl)acrylamide]	excellent inhibitors of Renilla luciferase	1.4	74	3.3	30	19.4	5.1	100	98	99
CN(C)CCc1c[nH]c2ccc(/C=C/C(=O)NCc3ccc([N+](=O)[O-])cc3)cc12 [Compound 3063, (E)-3-(3-(2-(dimethylamino)ethyl)-1H-indol-5-yl)-N-(4-nitrobenzyl)acrylamide]	excellent inhibitors of Renilla luciferase	1.6	63	5.4	19	33	3.1	102	102	102
CN(C)CCc1c[nH]c2ccc(/C=C/C(=O)N3CCOCC3)cc12 [Compound 3064, (E)-3-(3-(2-(dimethylamino)ethyl)-1H-indol-5-yl)-1-morpholinoprop-2-en-1-one]	excellent inhibitors of Renilla luciferase	1.3	81	2.9	35	11.4	9	102	101	103
COc1ccc(CNC(=O)/C=C/c2ccc3[nH]cc(CN(C)C)c3c2)cc1 [Compound 3067, (E)-3-(3-((dimethylamino)methyl)-1H-indol-5-yl)-N-(4-methoxybenzyl)acrylamide]	excellent inhibitors of Renilla luciferase	1.3	79	2.9	34	14.3	7	100	99	100
COc1ccc(CNC(=O)/C=C/c2ccc3[nH]cc(CCN(C)C)c3c2)cc1 [Compound 3068, (E)-3-(3-(2-(dimethylamino)ethyl)-1H-indol-5-yl)-N-(4-methoxybenzyl)acrylamide]	excellent inhibitors of Renilla luciferase	2.5	40	10.2	10	48.6	2.1	101	102	102
